Experimental data published in PubChem BioAssay AID296 (DTP/NCI, 2004).
“And” between values parts separate entries of the source, which are not always exact repeats. Equal values may be shown once. Inconclusive results are not listed.

Tested on: MX-1 breast xenograft, nude mice, tumor weight T/C
Assay: NCI In Vivo Anticancer Drug Screen. Data for tumor model Human Mammary Carcinoma MX-1 Xenograft (intrarenal inoculation) in NU/NU Swiss (nude) mice
Settings: endpoint: mean tumor weight change, higher = larger tumour
Outline: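 Mice carrying the implanted tumor receive either test agent or vehicle. Tumor size or survival is then recorded for both groups. Results are stated as the treated-to-control quotient.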

[1] = dose: 50.0 mg/kg/injection, schedule: Q01DX010 (sc), vehicle: Klucel (hydroxypropylcellulose) (HPC)
[2] = dose: 100.0 mg/kg/injection, schedule: Q01DX010 (sc), vehicle: Klucel (hydroxypropylcellulose) (HPC)
[3] = dose: 200.0 mg/kg/injection, schedule: Q01DX010 (sc), vehicle: Klucel (hydroxypropylcellulose) (HPC)
[4] = dose: 8.0 mg/kg/injection, schedule: Q01DX010 (sc), vehicle: suspension in saline
[5] = dose: 16.0 mg/kg/injection, schedule: Q01DX010 (sc), vehicle: suspension in saline
[6] = dose: 300.0 mg/kg/injection, schedule: Q04DX003 (sc), vehicle: saline with Tween-80
[7] = dose: 150.0 mg/kg/injection, schedule: Q04DX003 (sc), vehicle: saline
[8] = dose: 300.0 mg/kg/injection, schedule: Q04DX003 (sc), vehicle: saline
[9] = dose: 600.0 mg/kg/injection, schedule: Q04DX003 (sc), vehicle: saline
[10] = dose: 1200.0 mg/kg/injection, schedule: Q04DX003 (sc), vehicle: saline
[11] = dose: 600.0 mg/kg/injection, schedule: Q04DX003 (sc), vehicle: saline with Tween-80
[12] = dose: 1200.0 mg/kg/injection, schedule: Q04DX003 (sc), vehicle: saline with Tween-80
[13] = dose: 2400.0 mg/kg/injection, schedule: Q04DX003 (sc), vehicle: saline with Tween-80
[14] = dose: 300.0 mg/kg/injection, schedule: Q04DX003 (sc), vehicle: Klucel (hydroxypropylcellulose) (HPC)
[15] = dose: 600.0 mg/kg/injection, schedule: Q04DX003 (sc), vehicle: Klucel (hydroxypropylcellulose) (HPC)

CS(=O)(=O)OCCN(CCOS(C)(=O)=O)c1ccc(C=Nc2ccc(-c3csc(COc4ccccc4)n3)cc2)cc1
T/C [1]: 37 % of control | T/C [2]: -18 % of control | T/C [3]: -84 % of control

Cc1c2c(ccc3ccccc32)c[n+]2ccccc12
T/C (dose: 3.13 mg/kg/injection, schedule: Q01DX010 (sc), vehicle: saline): 101 % of control | T/C (dose: 6.25 mg/kg/injection, schedule: Q01DX010 (sc), vehicle: saline): 82 % of control | T/C (dose: 12.5 mg/kg/injection, schedule: Q01DX010 (sc), vehicle: saline): 25 % of control

C[CH2][Pb]([CH2]C)([CH2]C)[O]C(=O)COc1ccccc1
T/C (dose: 4.5 mg/kg/injection, schedule: Q04DX003 (sc), vehicle: saline with Tween-80): 66 % of control | T/C (dose: 9.0 mg/kg/injection, schedule: Q04DX003 (sc), vehicle: saline with Tween-80): 112 % of control | T/C (dose: 18.0 mg/kg/injection, schedule: Q04DX003 (sc), vehicle: saline with Tween-80): 79 % of control

C1OC1CN1CCN(CC2CO2)CC1 (stereo unspecified)
T/C [4]: 289 % of control | T/C (dose: 16.0 mg/kg/injection, schedule: Q01DX010 (sc), vehicle: saline): 8 % of control and 33 % of control | T/C [5]: 98 % of control

NC(Cc1ccc(N(CCCl)CCCl)cc1)C(=O)O (stereo unspecified)
T/C (dose: 10.0 mg/kg/injection, schedule: Q04DX003 (sc), vehicle: Klucel (hydroxypropylcellulose) (HPC)): -99 % of control | T/C (dose: 20.0 mg/kg/injection, schedule: Q04DX003 (sc), vehicle: Klucel (hydroxypropylcellulose) (HPC)): -100 % of control | T/C (dose: 40.0 mg/kg/injection, schedule: Q04DX003 (sc), vehicle: Klucel (hydroxypropylcellulose) (HPC)): -99 % of control

COc1ccc(/C=C/C(=O)c2cc(C(=O)O)c(OC)cc2OC)cc1OC
T/C (dose: 300.0 mg/kg/injection, schedule: Q04DX003 (sc), vehicle: suspension in saline): 99 % of control

O=Cc1ccc(O)c(O)c1
T/C [6]: 181 % of control

C=C(C)[C@@H]1CCc2c(O)c(O)c(=O)cc(C)c2C1
T/C [7]: 91 % of control | T/C [8]: 107 % of control | T/C [9]: 89 % of control | T/C [10]: 98 % of control

CS(=O)(=O)Nc1ccc(C(=O)CCN2CCCCCC2)cc1
T/C (dose: 150.0 mg/kg/injection, schedule: Q04DX003 (sc), vehicle: saline with Tween-80): 101 % of control | T/C [6]: 70 % of control

O=C(O)C1CC(O)CN1 (stereo unspecified)
T/C [7]: 67 % of control | T/C [8]: 120 % of control | T/C [9]: 91 % of control | T/C [10]: 106 % of control

O=C1[C@H]2CCC[C@H]2[C@H]2CCC[C@@H]12
T/C [6]: 112 % of control | T/C [11]: 123 % of control | T/C [12]: 95 % of control | T/C [13]: 92 % of control

CC(=O)/C(=C\c1ccc(Cl)c(Cl)c1)C(=O)CCN(C)C
T/C (dose: 25.0 mg/kg/injection, schedule: Q04DX003 (ip), vehicle: saline): 166 % of control | T/C (dose: 50.0 mg/kg/injection, schedule: Q04DX003 (ip), vehicle: saline): 98 % of control | T/C (dose: 100.0 mg/kg/injection, schedule: Q04DX003 (ip), vehicle: saline): 83 % of control

CSc1ccc2c(c1)C(N1CCN(C)CC1)Cc1ccccc1S2 (stereo unspecified)
T/C (dose: 12.5 mg/kg/injection, schedule: Q04DX003 (sc), vehicle: other): 50 % of control | T/C (dose: 25.0 mg/kg/injection, schedule: Q04DX003 (sc), vehicle: other): 23 % of control | T/C (dose: 100.0 mg/kg/injection, schedule: Q04DX003 (sc), vehicle: other): 42 % of control

Cc1ccc(S(=O)(=O)OCOS(=O)(=O)c2ccc(C)cc2)cc1
T/C [14]: 89 % of control | T/C [15]: 98 % of control | T/C (dose: 1200.0 mg/kg/injection, schedule: Q04DX003 (sc), vehicle: Klucel (hydroxypropylcellulose) (HPC)): 85 % of control | T/C (dose: 2400.0 mg/kg/injection, schedule: Q04DX003 (sc), vehicle: Klucel (hydroxypropylcellulose) (HPC)): 63 % of control

BrC[P+](CBr)(CBr)CBr
T/C (dose: 100.0 mg/kg/injection, schedule: Q04DX003 (sc), vehicle: saline with Tween-80): 105 % of control | T/C (dose: 200.0 mg/kg/injection, schedule: Q04DX003 (sc), vehicle: saline with Tween-80): 117 % of control | T/C (dose: 400.0 mg/kg/injection, schedule: Q04DX003 (sc), vehicle: saline with Tween-80): 111 % of control

NCC1CCC(C(=O)O)CC1 (stereo unspecified)
T/C [11]: 115 % of control | T/C [12]: 76 % of control | T/C [13]: 155 % of control

COC1=CC(=O)N(C(=O)C2CSC(C(CO)NC(=O)c3csc(/C=N/O)n3)=N2)C1 (stereo unspecified)
T/C (dose: 150.0 mg/kg/injection, schedule: Q04DX003 (sc), vehicle: Klucel (hydroxypropylcellulose) (HPC)): 79 % of control | T/C [14]: 81 % of control | T/C [15]: 95 % of control

CCOC(=O)c1ccc(NC(=O)Nc2nncs2)cc1
T/C (dose: 50.0 mg/kg/injection, schedule: Q01DX010 (sc), vehicle: distilled water + Tween-80): 44 % of control | T/C (dose: 100.0 mg/kg/injection, schedule: Q01DX010 (sc), vehicle: saline with Tween-80): 65 % of control | T/C (dose: 200.0 mg/kg/injection, schedule: Q01DX010 (sc), vehicle: saline with Tween-80): 62 % of control | T/C (dose: 400.0 mg/kg/injection, schedule: Q01DX010 (sc), vehicle: saline with Tween-80): 65 % of control | T/C (dose: 800.0 mg/kg/injection, schedule: Q01DX010 (sc), vehicle: distilled water + Tween-80): 120 % of control | T/C (dose: 800.0 mg/kg/injection, schedule: Q01DX010 (sc), vehicle: saline with Tween-80): 37 % of control

O=NN(CCCl)C(=O)NCCCl
T/C (dose: 2.0 mg/kg/injection, schedule: Q01DX010 (sc), vehicle: saline): 74 % of control | T/C (dose: 4.0 mg/kg/injection, schedule: Q01DX010 (sc), vehicle: saline): 76 % of control | T/C (dose: 4.0 mg/kg/injection, schedule: Q01DX010 (sc), vehicle: suspension in saline): 80 % of control | T/C (dose: 7.5 mg/kg/injection, schedule: Q04DX003 (sc), vehicle: suspension in saline): 80 % of control | T/C (dose: 8.0 mg/kg/injection, schedule: Q01DX010 (sc), vehicle: saline): 56 % of control | T/C [4]: 44 % of control | T/C (dose: 15.0 mg/kg/injection, schedule: Q04DX003 (sc), vehicle: suspension in saline): 37 % of control and 52 % of control | T/C [5]: 2 % of control | T/C (dose: 32.0 mg/kg/injection, schedule: Q01DX010 (sc), vehicle: saline): 2 % of control

O=c1cc(-c2ccccc2)[nH]c2c1CCCC2
T/C [6]: 54 % of control | T/C [11]: 53 % of control | T/C [12]: 65 % of control | T/C [13]: 96 % of control

CCCC(=O)OCc1cc(=O)n(C)c2c3c4c(cc12)c(C)cc(=O)n4CO3
T/C (dose: 12.5 mg/kg/injection, schedule: Q01DX010 (sc), vehicle: Klucel (hydroxypropylcellulose) (HPC)): 170 % of control | T/C (dose: 25.0 mg/kg/injection, schedule: Q01DX010 (sc), vehicle: Klucel (hydroxypropylcellulose) (HPC)): 67 % of control | T/C [1]: 20 % of control | T/C [2]: 15 % of control | T/C [3]: 87 % of control | T/C (dose: 400.0 mg/kg/injection, schedule: Q01DX010 (sc), vehicle: Klucel (hydroxypropylcellulose) (HPC)): 91 % of control | T/C (dose: 800.0 mg/kg/injection, schedule: Q01DX010 (sc), vehicle: Klucel (hydroxypropylcellulose) (HPC)): 72 % of control

CC(=O)OCC1OC([S-])C(OC(C)=O)C(OC(C)=O)C1OC(C)=O.CC[PH+](CC)CC.CC[PH+](CC)CC.[Au].[Au] (stereo unspecified)
T/C (dose: 0.32 mg/kg/injection, schedule: Q04DX003 (sc), vehicle: Klucel (hydroxypropylcellulose) (HPC)): 88 % of control | T/C (dose: 0.63 mg/kg/injection, schedule: Q04DX003 (sc), vehicle: Klucel (hydroxypropylcellulose) (HPC)): 112 % of control | T/C (dose: 1.25 mg/kg/injection, schedule: Q04DX003 (sc), vehicle: Klucel (hydroxypropylcellulose) (HPC)): 100 % of control | T/C (dose: 2.5 mg/kg/injection, schedule: Q04DX003 (sc), vehicle: Klucel (hydroxypropylcellulose) (HPC)): 87 % of control

CO[C@H]1Nc2c(ccc(C)c2O)C(=O)N2C=C(/C=C/C(N)=O)C[C@@H]12
T/C (dose: 0.5 mg/kg/injection, schedule: Q04DX003 (sc), vehicle: saline + alcohol): 18 % of control and 40 % of control | T/C (dose: 2.0 mg/kg/injection, schedule: Q04DX003 (sc), vehicle: saline + alcohol): -100 % of control

NC(=S)N/N=C/c1ccc(OC(=O)COc2ccccc2)cn1
T/C [6]: 101 % of control | T/C [11]: 103 % of control | T/C [12]: 76 % of control

CCCC(=O)O
T/C (dose: 100.0 mg/kg/injection, schedule: Q01DX010 (sc), vehicle: saline): 104 % of control
